The values below come from publication PMC9884962, “Pigments of aminophenoxazinones and viridomycins produced by termite-associated Streptomyces tanashiensis BYF-112” (Frontiers in Microbiology, 2023).

≈ marks a conversion by molar mass, not a printed value. Where “and” joins values, the source holds several entries; their conditions need not be identical. Equal values may be shown once. Read-outs that look alike come from different tables or passages of the source.

A word on the IC50: it is the concentration at which inhibition is half-maximal.

Common to all, as to format: cell-based
Data set [1] deals with Escherichia coli (ATCC8739). The data set is described as follows: Filter paper disc diffusion, E. coli. As to conditions: 30 μg/filter paper (6 mm disc), 37°C, 12 h; dash = No inhibited. The method, then: (§1) The Staphylococcus aureus (ATCC6538), methicillin-resistant S. aureus (MRSA, SA2), Escherichia coli (ATCC8739) and Micrococcus tetragenus (ATCC35098) donated by Professor Ting Xue from Anhui Agricultural university were used as a target pathogen for the examination of antibacterial activity of the metabolites. The disc diffusion ([Özogul et al., 2022]) and minimum inhibitory concentrations (MICs; [Cui et al., 2022]) methods were performed to evaluate the antibacterial activities of the new natural metabolites 1, 2, and 4. Filter paper disks (6 mm) with metabolite dissolved in DMSO in a concentration (30 μg/filter paper) were added to the culture medium, and the plates were incubated at 37°C for 12 h. Filter papers with DMSO and levofloxacin were set as negative and positive controls, respectively. All experiments were performed in triplicate, and data were shown as mean values standard deviation. And the MICs of the compounds were determined by the method as we previously described ([Cui et al., 2022]).
(In general: Agar diffusion results depend on both activity and mobility in agar.)

In data set [2] the test system is Micrococcus tetragenus (ATCC35098). The data set is described as follows: Filter paper disc diffusion, M. tetragenus. To be noted: 30 μg/filter paper (6 mm disc), 37°C, 12 h, dash = No inhibited. The procedure:
as §1

The test system of data set [3] is Staphylococcus aureus (ATCC6538). As to the kind of experiment: Filter paper disc diffusion, S. aureus. To be noted: 30 μg/filter paper (6 mm disc), 37°C, 12 h, dash = No inhibited. The method, then:
as §1

The subject of data set [4] is methicillin-resistant S. aureus (MRSA, SA2). As to the kind of experiment: Filter paper disc diffusion, MRSA. To be noted: 30 μg/filter paper (6 mm disc), 37°C, 12 h, dash = No inhibited. The procedure: as §1
Data set [5] relates to Escherichia coli (ATCC8739). The data set is described as follows: Minimum inhibitory concentration assay, E. coli. The procedure: as §1
For data set [6], the system named is Micrococcus tetragenus (ATCC35098). As to the kind of experiment: Minimum inhibitory concentration assay, M. tetragenus. As to conditions: for MIC: Micrococcus, ATCC35098. The procedure:
as §1

For data set [7], the system named is Staphylococcus aureus (ATCC6538). The data set is described as follows: Minimum inhibitory concentration assay, S. aureus. As to conditions: for MIC: Staphylococcus aureus, ATCC6538. The method, then: as §1
Data set [8] deals with methicillin-resistant S. aureus (MRSA, SA2). As to the kind of experiment: Minimum inhibitory concentration assay, MRSA. The method, then:
as §1

Data set [9] relates to human malignant melanoma cell line (A375). As to the kind of experiment: MTT cytotoxicity assay, A375. As to conditions: A-375, 48 h exposure, read-out: Cytotoxic activity IC50, A375. The procedure:
(§2) The metabolites 1–4 were evaluated for their cytotoxic activities against human malignant melanoma cell line (A375), human ovarian cancer cell line (SKOV-3), human breast cancer cell line (MDA-MB231), human gastric cancer cell line (MGC-803) and human normal cell line (L-02) with the MTT method ([Wang et al., 2022]). The cell lines were maintained in Dulbecco’s modified eagle medium (DMEM) supplemented with 10% fetal bovine serum (FBS) along with 1% penicillin and streptomycin. Cells were grown at 37°C in an atmosphere with 5% CO2 and then seeded in 96-well plates and permitted to grow for 20 h. Then tested compounds at preset concentrations were added. The 3-(4,5-dimethylthiazol-2-yl)-2,5-diphenyltetrazolium bromide (MTT; 20 μl, 5 mg/ml) was added into each well after a 48 h exposure period. After an additional 4 h further incubation, the medium was replaced by DMSO (150 μl), then shaking the plates for 15 min. The absorbance at 490 nm were recorded. The percentage of cell viability was calculated using the following formula: Cell viability (%) = the OD of tested group/the OD of CK × 100%. Finally, IC50 values were determined by EXCEL. The azithromycin was used as positive control.

In data set [10] the test system is human ovarian cancer cell line (SKOV-3). As to the kind of experiment: MTT cytotoxicity assay, SKOV-3. To be noted: SK-OV-3, 48 h exposure, read-out: Cytotoxic activity IC50, SKOV-3. The procedure: as §2
(In general: Tetrazolium assays rely on reduction of a dye to a coloured formazan, in cell work by metabolically active cells.)

Data set [11] relates to human breast cancer cell line (MDA-MB231). As to the kind of experiment: MTT cytotoxicity assay, MDA-231. As to conditions: MDA-MB-231, 48 h exposure, read-out: Cytotoxic activity IC50, MDA-231. The method, then: as §2
The subject of data set [12] is human gastric cancer cell line (MGC-803). As to the kind of experiment: MTT cytotoxicity assay, MGC-803. To be noted: 48 h exposure, read-out: Cytotoxic activity IC50, MGC-803. The procedure: as §2
Data set [13] in a line: MTT cytotoxicity assay, L-02. As to conditions: human, L-02 normal liver cells, 48 h exposure, normal cell line, read-out: Cytotoxic activity IC50, L-02. The method, then: as §2
Data set [14] deals with human cancer cell lines (A375, SKOV-3, MDA-231 and MGC-803). The data set is described as follows: MTT cytotoxicity assay, tested human cancer cell lines together. As to conditions: range over A375, SKOV-3, MDA-231 and MGC-803, read-out: IC50 values against the tested human cancer cell lines. The method, then: as §2
The mark [15] stands for this setting: Staphylococcus aureus, MRSA; read-out: Minimum inhibitory concentration (MIC), MRSA.

In the case of `C[C@H]1COc2c(N3CCN(C)CC3)c(F)cc3c(=O)c(C(=O)O)cn1c23` [Levofloxacin, levofloxacin, reference compound], in data set [1], the “Zone of inhibition (ZOI), Escherichia coli” value amounted to 33.0 ± 1.0 mm. Further, the “Zone of inhibition (ZOI), Micrococcus tetragenus” value came to 24.8 ± 0.6 mm in [2] and 24.8 mm in [2] (listed as levofloxacin). The “Zone of inhibition (ZOI), Staphylococcus aureus” value in data set [3] stood at 28.9 ± 0.8 mm; in data set [3] (listed as levofloxacin), 28.9 mm. For the same compound, the “Zone of inhibition (ZOI), MRSA” value in data set [4] was 15.2 ± 0.1 mm; in data set [4] (listed as levofloxacin), 15.2 mm. The MIC in data set [5] was 3.13 µg/mL (≈ 8.66 µM); in [6] it was 3.13 µg/mL (≈ 8.66 µM); in [7] it was 3.13 µg/mL (≈ 8.66 µM); in [8] (Staphylococcus aureus, MRSA, read-out: Minimum inhibitory concentration (MIC), MRSA), 6.25 µg/mL (≈ 17.3 µM).
As to `CC(=O)OCc1ccc2oc3cc(=O)c(NC4OC(CO)C(O)C(O)C4O)cc-3nc2c1` (centres unmarked) [Compound 4, exfoliazoneglycoside], the half-maximal inhibitory concentration (IC50) in data set [9], in [10], in data set [11] and in data set [12] was more than 100 µM throughout. Moreover, in data set [13], the concentration for half-maximal inhibition (IC50) at 48 h is more than 100 µM. Moreover, the “Zone of inhibition (ZOI), Escherichia coli” value in data set [1] is on record as “–^b”. Besides, the “Zone of inhibition (ZOI), Micrococcus tetragenus” value in [2] was “–^b”. Besides, in [3], the “Zone of inhibition (ZOI), Staphylococcus aureus” value is recorded as “–^b”. In data set [4], the “Zone of inhibition (ZOI), MRSA” value was “–^b”. Further, the MIC in [5], in data set [6], in data set [7] and in data set [8] (setting [15]) was more than 100 µg/mL in each case.
On to `CC(=O)OCc1ccc2oc3cc(=O)c(N)cc-3nc2c1` [Compound 2, exfoliazone B], for which the IC50 in data set [9] was more than 100 µM; in data set [10], 75.8 ± 5.77 µM; in data set [11], more than 100 µM; in data set [12], 69.9 ± 1.94 µM. Also, the IC50 at 48 h in [13] is more than 100 µM. Moreover, the “Zone of inhibition (ZOI), Escherichia coli” value in data set [1] is listed as “–^b”. Moreover, in [2], the “Zone of inhibition (ZOI), Micrococcus tetragenus” value was “–^b”. Besides, the “Zone of inhibition (ZOI), Staphylococcus aureus” value in [3] is listed as “–^b”. Also, the “Zone of inhibition (ZOI), MRSA” value in [4] was “–^b”. In addition, the MIC in data set [5] is more than 100 µg/mL; in data set [6], 50 µg/mL (≈ 176 µM); in data set [7], more than 100 µg/mL; in data set [8] (setting [15]), more than 100 µg/mL.
As to gentamycin sulfate [reference compound], the “Minimum inhibitory concentration (MIC), Micrococcus tetragenus” value in [6] was found to be 3.13 µg/mL. For the same compound, the “Minimum inhibitory concentration (MIC), Staphylococcus aureus” value in data set [7] stood at 3.13 µg/mL. For the same compound, the “Minimum inhibitory concentration (MIC), MRSA” value in [8] was 6.25 µg/mL.
For the compound `CC(=O)Nc1cc(CNc2cc3nc4cc(CO)ccc4oc-3cc2=O)ccc1O` [Compound 3, exfoliazone C], the IC50 in data set [9], in data set [10], in data set [11] and in [12] was more than 100 µM each time. The concentration for half-maximal inhibition (IC50) at 48 h in [13] was more than 100 µM.
Take `CC[C@H]1OC(=O)[C@H](C)[C@@H](O[C@H]2C[C@@](C)(OC)[C@@H](O)[C@H](C)O2)[C@H](C)[C@@H](O[C@@H]2O[C@H](C)C[C@H](N(C)C)[C@H]2O)[C@](C)(O)C[C@@H](C)CN(C)[C@H](C)[C@@H](O)[C@]1(C)O` [Azithromycin, azithromycin, reference compound]: the IC50 in data set [9] stood at 0.79 ± 0.13 µM; in data set [10] it was 0.41 ± 0.12 µM; in data set [11], 4.03 ± 0.43 µM; in data set [12], 1.57 ± 0.03 µM. Further, the half-maximal inhibitory concentration (IC50) at 48 h in [13] turned out to be 7.34 ± 1.15 µM.
`Nc1cc2nc3cc(CO)ccc3oc-2cc1=O` [Compound 1, 2-amino-8-hydroxymethyl-3H-phenoxazin-3-one]: the IC50 was 67.7 ± 4.31 µM in [9]; 22.3 ± 3.78 µM in [10]; 55.9 ± 7.47 µM in [11]; 50.2 ± 7.01 µM in [12]; 22.3 to 67.7 µM in data set [14]. The IC50 at 48 h in data set [13] was determined as 72 ± 7.22 µM. The “Zone of inhibition (ZOI), Escherichia coli” value in data set [1] is “–^b”. Besides, the “Zone of inhibition (ZOI), Micrococcus tetragenus” value in data set [2] was 15.3 mm and 15. mm and 15.3 ± 0.2 mm. For the same compound, the “Zone of inhibition (ZOI), Staphylococcus aureus” value in data set [3] is 17.2 mm and 17.2 ± 0.2 mm. In addition, the “Zone of inhibition (ZOI), MRSA” value in [4] was 15.3 mm and 15.3 ± 0.1 mm. Further, the MIC in data set [5] was more than 100 µg/mL; in data set [6], 12.5 µg/mL (≈ 51.6 µM); in data set [7] it was 12.5 µg/mL (≈ 51.6 µM); in data set [8] (setting [15]), 25 µg/mL (≈ 103 µM). For the same compound, the “Minimum inhibitory concentration (MIC), Staphylococcus aureus” value in data set [7] came out at 12.5 µg/mL (≈ 51.6 µM).
